Patent publication US6562833B1 (priority 1998, dated 2003)

Assays:
Format in all cases: in vivo
Plasmopara viticola [1] = experiment: Comparative Experiment 1 - activity against Plasmopara viticola on grapevine leaves (persistency, 500 ppm); details: potted grapevines c.v. Müller-Thurgau; aqueous 500 ppm preparation sprayed to runoff; inoculated 7 days after treatment; untreated plants 85% infected
From the text: (§1) The active ingredients were formulated separately or jointly as a 10% emulsion in a mixture of 70% by weight of cyclohexanone, 20% by weight of Nekanil® LN (Lutensol® AP6, wetting agent having emulsifying and dispersant action based on ethoxylated alkylphenols) and 10% by weight of Wettol® EM (nonionic emulsifier based on ethoxylated castor oil) and diluted with water to give the desired concentration.
Leaves of potted grapevines c.v. “Müller-Thurgau” were sprayed to runoff point with an aqueous 500 ppm preparation of active compound which had been made up from a stock solution comprising 10% of active compound, 63% of cyclohexanone and 27% of emulsifier. To assess the persistency of the substances, the plants were kept for 7 days in a greenhouse after the spray-coating had dried off. Only then were the leaves inoculated with an aqueous zoospore suspension of Plasmopara viticola. The grapevines were then initially kept in a water vapor-saturated chamber at 24° C. for 48 hours and then in a greenhouse at 20-30° C. for 5 days. After this period of time, the plants were once more kept in a humid chamber for 16 hours to promote sporangiophore eruption. The extent of the infection on the undersides of the leaves was then determined visually.

Puccinia recondita = experiment: Comparative Experiment 2 - curative activity against Puccinia recondita on wheat (wheat leaf rust); details: potted wheat seedlings c.v. Kanzler, aqueous 250 ppm preparation sprayed the day after inoculation, assessed after 7 days, untreated plants 100% infected
From the text: as §1
Leaves of potted wheat seedlings c.v. “Kanzler” were dusted with spores of wheat leaf rust (Puccinia recondita). Thereafter, the pots were kept in a chamber of high atmospheric humidity (90 to 95%), at 20 to 22° C. for 24 hours. During this time, the spores germinated and the germ tubes penetrated into the leaf tissue. The next day, the infected plants were sprayed to runoff point with an aqueous 250 ppm preparation of active compound which had been made up from a stock solution consisting of 10% of active compound, 63% of cyclohexanone and 27% of emulsifier. After the spraycoating had dried on, the test plants were cultivated in a greenhouse at 20-22° C. and 65-70% relative atmospheric humidity for 7 days. The extent of the rust fungus development on the leaves was then determined.

Pyricularia oryzae = details: potted rice seedlings c.v. TaiNong 67; protective, aqueous 250 ppm preparation; inoculated the next day; assessed after 6 days; untreated plants 90% infected
Plasmopara viticola [2] = experiment: Comparative Experiment 4 - activity against Plasmopara viticola on grapevine leaves (persistency, 250 ppm); details: potted grapevines c.v. Müller-Thurgau; aqueous 250 ppm preparation sprayed to runoff; inoculated 7 days after treatment; untreated plants 85% infected
From the text: as §1
Leaves of potted grapevines c.v. “Müller-Thurgau” were sprayed to runoff point with an aqueous 250 ppm preparation of active compound which had been made up from a stock solution comprising 10% of active compound, 63% of cyclohexanone and 27% of emulsifier. To assess the persistency of the substances, the plants were kept for 7 days in a greenhouse after the spray-coating had dried off. Only then were the leaves inoculated with an aqueous zoospore suspension of Plasmopara viticola. The grapevines were then initially kept in a water vapor-saturated chamber at 24° C. for 48 hours and then in a greenhouse at 20-30° C. for 5 days. After this period of time, the plants were once more kept in a humid chamber for 16 hours to promote sporangiophore eruption. The extent of the infection on the undersides of the leaves was then determined visually.

Compound | infection (extent of the infection on the undersides of the leaves, determined visually) (Plasmopara viticola [1]) [%] | infection (extent of the rust fungus development on the leaves) (Puccinia recondita) [%] | infection (extent of the development of the disease on the leaves, determined visually) (Pyricularia oryzae) [%] | infection (extent of the infection on the undersides of the leaves, determined visually) (Plasmopara viticola [2]) [%]
Cc1nc(Nc2ccccc2)nc(C#N)c1C [I.9, 4-Cyano-5,6-dimethyl-2-(phenylamino)pyrimidine] | 5 | 30 | – | –
Cc1nc(Nc2ccccc2)nc(C(F)(F)F)c1C [I.18] | – | – | 15 | –
CON=Cc1nc(Nc2ccccc2)nc(C)c1C [I.62, 5,6-Dimethyl-4-(N-methoxyimino)methyl-2-(N-phenylamino)pyrimidine] | – | – | – | 10
Cc1cc(C#N)nc(Nc2ccccc2)n1 [active compound A] | 50 | 100 | – | –
Cc1cc(C(F)(F)F)nc(Nc2ccccc2)n1 [active compound B] | – | – | 80 | –
CON=Cc1cc(C)nc(Nc2ccccc2)n1 [active compound C] | – | – | – | 60
